Laboratory results from patent US11608319B2, “Beta-amino acid derivative, kinase inhibitor and pharmaceutical composition containing the same, and method for performing an in vivo related application that benefits from the inhibition of a kinase” (Industrial Technology Research Institute, priority 2019, dated 2023).
Counter-ions that a name gives are not always drawn. Like-named read-outs stand apart in the source and are kept apart here.

How the values were obtained:
ROCK1 = ROCK1 (Homo sapiens (Human), UniProt Q13464); test: biochemical
Chain of ROCK1 (Q13464 whole entry, species assumed): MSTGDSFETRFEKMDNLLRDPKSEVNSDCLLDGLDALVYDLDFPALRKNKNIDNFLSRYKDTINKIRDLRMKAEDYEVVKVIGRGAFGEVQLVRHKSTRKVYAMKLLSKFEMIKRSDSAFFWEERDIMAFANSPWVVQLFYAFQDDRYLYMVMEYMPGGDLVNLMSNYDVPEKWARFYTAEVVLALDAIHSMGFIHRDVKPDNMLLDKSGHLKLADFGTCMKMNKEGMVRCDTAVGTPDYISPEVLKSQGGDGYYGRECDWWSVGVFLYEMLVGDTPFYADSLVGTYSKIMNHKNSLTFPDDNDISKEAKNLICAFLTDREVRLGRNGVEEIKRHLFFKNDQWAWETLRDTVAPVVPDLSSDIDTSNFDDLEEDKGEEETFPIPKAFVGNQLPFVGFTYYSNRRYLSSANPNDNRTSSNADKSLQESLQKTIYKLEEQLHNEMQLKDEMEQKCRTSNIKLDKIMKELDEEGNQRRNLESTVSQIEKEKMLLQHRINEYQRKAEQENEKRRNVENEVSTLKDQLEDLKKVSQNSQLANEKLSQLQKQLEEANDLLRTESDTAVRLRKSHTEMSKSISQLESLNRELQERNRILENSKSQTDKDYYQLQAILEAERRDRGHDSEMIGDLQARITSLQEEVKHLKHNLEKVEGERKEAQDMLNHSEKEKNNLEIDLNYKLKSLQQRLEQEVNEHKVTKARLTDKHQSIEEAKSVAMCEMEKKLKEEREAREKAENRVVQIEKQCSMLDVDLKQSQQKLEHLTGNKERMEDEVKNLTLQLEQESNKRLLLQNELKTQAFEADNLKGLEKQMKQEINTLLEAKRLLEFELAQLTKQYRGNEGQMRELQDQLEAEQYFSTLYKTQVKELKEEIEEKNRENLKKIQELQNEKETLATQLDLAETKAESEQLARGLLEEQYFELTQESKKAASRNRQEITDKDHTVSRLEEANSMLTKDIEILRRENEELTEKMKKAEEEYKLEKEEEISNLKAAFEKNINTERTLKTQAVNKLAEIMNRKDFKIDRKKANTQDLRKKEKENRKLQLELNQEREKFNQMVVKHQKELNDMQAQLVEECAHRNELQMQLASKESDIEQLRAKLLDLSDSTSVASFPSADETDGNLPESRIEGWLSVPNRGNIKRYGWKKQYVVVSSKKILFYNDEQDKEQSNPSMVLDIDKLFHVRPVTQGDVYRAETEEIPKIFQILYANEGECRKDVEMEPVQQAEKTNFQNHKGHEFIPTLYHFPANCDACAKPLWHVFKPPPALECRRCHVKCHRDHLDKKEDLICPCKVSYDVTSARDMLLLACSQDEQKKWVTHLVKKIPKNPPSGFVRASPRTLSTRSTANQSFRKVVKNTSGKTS

MYLK4 = MYLK4 (Homo sapiens (Human), UniProt Q86YV6); test: Assay for inhibitory effect on MYLK-4, LanthaScreen Eu Kinase Binding Assay
Chain of MYLK4 (Q86YV6 whole entry): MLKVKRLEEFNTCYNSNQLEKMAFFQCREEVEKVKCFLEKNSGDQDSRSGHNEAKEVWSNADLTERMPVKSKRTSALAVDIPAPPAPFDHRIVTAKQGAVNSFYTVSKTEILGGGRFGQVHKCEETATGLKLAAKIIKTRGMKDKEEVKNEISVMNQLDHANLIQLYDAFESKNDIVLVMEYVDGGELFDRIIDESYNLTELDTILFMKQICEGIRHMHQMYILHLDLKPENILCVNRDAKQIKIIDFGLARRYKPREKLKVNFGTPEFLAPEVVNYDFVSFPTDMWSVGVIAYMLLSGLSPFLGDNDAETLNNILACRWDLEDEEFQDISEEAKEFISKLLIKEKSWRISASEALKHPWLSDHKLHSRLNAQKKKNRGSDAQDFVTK

YSK4 = YSK4 (Homo sapiens (Human), UniProt Q56UN5); test: Assay for inhibitory effect on YSK-4, Z'-LYTE kinase assay; assay type: biochemical; settings: ATP 5 μM
Chain of YSK4 (Q56UN5 whole entry): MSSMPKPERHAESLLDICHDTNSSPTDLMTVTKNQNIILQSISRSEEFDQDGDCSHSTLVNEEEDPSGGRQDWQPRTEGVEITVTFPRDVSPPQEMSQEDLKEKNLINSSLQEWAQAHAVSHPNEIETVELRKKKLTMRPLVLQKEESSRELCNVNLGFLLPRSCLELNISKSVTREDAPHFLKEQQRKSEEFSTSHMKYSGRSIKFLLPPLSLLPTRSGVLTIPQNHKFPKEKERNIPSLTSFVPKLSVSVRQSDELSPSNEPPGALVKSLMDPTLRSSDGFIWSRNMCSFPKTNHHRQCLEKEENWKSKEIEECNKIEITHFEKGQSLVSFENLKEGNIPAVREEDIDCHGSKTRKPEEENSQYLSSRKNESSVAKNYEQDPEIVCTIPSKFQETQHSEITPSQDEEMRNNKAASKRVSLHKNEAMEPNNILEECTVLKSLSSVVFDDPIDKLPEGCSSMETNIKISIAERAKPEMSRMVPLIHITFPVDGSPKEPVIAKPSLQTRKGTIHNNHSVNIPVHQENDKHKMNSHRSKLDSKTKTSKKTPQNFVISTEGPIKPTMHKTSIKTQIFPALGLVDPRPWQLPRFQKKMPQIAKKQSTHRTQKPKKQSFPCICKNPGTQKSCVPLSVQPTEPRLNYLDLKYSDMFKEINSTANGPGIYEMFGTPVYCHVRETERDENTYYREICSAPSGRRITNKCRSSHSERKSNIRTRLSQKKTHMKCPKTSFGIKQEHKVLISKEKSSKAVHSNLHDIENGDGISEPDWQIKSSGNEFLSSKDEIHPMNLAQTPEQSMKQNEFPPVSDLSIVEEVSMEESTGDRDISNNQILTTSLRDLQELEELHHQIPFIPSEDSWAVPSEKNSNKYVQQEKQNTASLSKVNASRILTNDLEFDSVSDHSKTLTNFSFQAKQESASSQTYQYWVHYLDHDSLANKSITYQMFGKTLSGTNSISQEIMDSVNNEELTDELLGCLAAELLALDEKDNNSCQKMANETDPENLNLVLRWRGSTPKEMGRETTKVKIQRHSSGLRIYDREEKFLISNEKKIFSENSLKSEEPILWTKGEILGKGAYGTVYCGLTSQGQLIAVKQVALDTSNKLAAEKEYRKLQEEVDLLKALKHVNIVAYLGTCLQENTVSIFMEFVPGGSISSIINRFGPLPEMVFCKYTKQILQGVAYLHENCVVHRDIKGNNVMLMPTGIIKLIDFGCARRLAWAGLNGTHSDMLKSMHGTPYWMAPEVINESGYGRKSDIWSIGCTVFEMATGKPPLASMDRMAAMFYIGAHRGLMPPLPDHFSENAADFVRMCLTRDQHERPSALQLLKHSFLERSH
Experimental: C. Assay for Inhibitory Effect on YSK-4
The experimental procedure referred to the Z′-LYTE Screening Protocol and Assay Conditions provided by ThermoFisher Scientific.
C-1. Material Preparation
Peptide/Kinase Mixture was pre-diluted with Kinase Buffer to 2× working concentration.
ATP solution was pre-diluted with Kinase Buffer (50 mM HEPES pH 7.5, 0.01% BRIJ-35, 10 mM MgCl2, 1 mM EGTA) to 4× working concentration.
The development reagent solution is Novel PKC Lipid Mix, which contains 2 mg/mL Phosphatidyl Serine, 0.2 mg/mL DAG in 20 mM HEPES, pH 7.4 and 0.3% CHAPS, and was pre-diluted 10 fold with development buffer.
1. 100 nL of the above diluted test compound and 2.4 μL of kinase buffer were added to a black 384-well plate (Corning, Cat. NO. 4514), then add 5 μL of the peptide/kinase mixture mentioned above was added thereto, and after that 2.5 μL of ATP solution was added thereto, and the culture plate was shaken for 30 seconds.
2. Next, the culture plate was placed at room temperature and incubated for 60 minutes.
3. After that 5 μL of the development reagent solution was added and the culture plate was shaken for 30 seconds in the dark, and then the data was read and analyzed with a fluorescence plate reader.
In addition, for the kinase, the following control group was prepared and placed on the same culture plate as the kinase:
(1) 0% Phosphorylation Control (100% Inhibition Control)
This control yields 100% cleaved peptide in the Development Reaction.
(2) 100% Phosphorylation Control
A synthetically phosphorylated peptide of the same sequence as the peptide substrate is used as the 100% Phosphorylation Control.
The Phosphorylation percent achieved in a specific reaction well (Experimental group) was calculated based on the 0% Phosphorylation Control and 100% Phosphorylation Control.

[1] = test system: rabbit eyes with normal intraocular pressure; test: Evaluation of the effect of decreasing intraocular pressure in a model of rabbit with normal intraocular pressure; assay type: in vivo, New Zealand white rabbit; settings: for Intraocular pressure difference (mmHg): at time point of maximum effect
Experimental: Evaluation of the Effect of Decreasing Intraocular Pressure in a Model of Rabbit with Normal Intraocular Pressure
Experimental animal: New Zealand white rabbit, male, weighing more than 2 kg. New Zealand white rabbits were purchased from Huijun Farm (Changhua, Taiwan). After a one-week quarantine period, they were raised in MASTER LABORATORY Co., Ltd under the environmental conditions of 16-22° C., 30-70% relative humidity (RH), 8 hours day/16 hours night.
(1) Evaluation of the Effect of Reducing Intraocular Pressure
After weighing 12 New Zealand white rabbits (2.0-4.0 kg) and grouping them (n=3-6 in each group), the white rabbits were fixed with a wrap.

[2] = test system: rabbit eyes with normal intraocular pressure; settings: eye drop concentration
Experimental: The maximal effect (Emax) dose evaluation of the intraocular pressure reduction model in normal rabbit
Animals: Male New Zealand white rabbits (n=7/each group);
Administration: 50 μL of the test compound was instilled in the right eye (dosed eye) and 50 μL of the vehicle (without the test compound) in the left eye (control eye) of each experimental animal. The 3 formulation mentioned above were administered once a day for 3 consecutive days.
The intraocular pressure of each animal was measured by Tono-Vet (iCare) before administration (0 hours) and 2, 4, 6 and 8 hours after administration on Day 1 and Day 3.
The maximum magnitude of the reduction in intraocular pressure %=(Intraocular pressure of the control eye−Intraocular pressure of the dosed eye)/Intraocular pressure of the control eye*100
The data presented in this experiment is the data that has removed the unqualified data (white rabbits with an intraocular pressure difference ≥2 mmHg (n=1) in the two eyes on Day 1 and >5 mmHg in the two eyes before the administration on the Day 3 (n=1) have been removed) and removed the rebound high intraocular pressure (n=3).

Structure (SMILES)	IC50 (MYLK4)	IC50 (YSK4)	IC50 (ROCK1)	maximum effect (Emax) dose in the normal intraocular pressure rabbit model [2]	also measured
NC[C@@H](C(=O)Nc1ccc2cnccc2c1)c1ccc(CO)cc1 [AR-13503, reference compound]	100 to 1000 nM	–	–	–	IC50 (ROCK1; read-out: ROCK1 IC50): < 1 nM
[N-]=[N+]=NC(CN)C(=O)Nc1ccc(-c2cn[nH]c2)cc1 (centres unmarked) [Compound 1, N-(4-(1H-pyrazol-4-yl)phenyl)-3-amino-2-azidopropanamide dihydrochloride]	100 to 1000 nM	> 10000 nM	100 to 1000 nM	–	–
NCC(C(=O)Nc1ccc(-c2cn[nH]c2)cc1)n1cc(-c2ccccc2)nn1 (centres unmarked) [Compound 2, dihydrochloride]	100 to 1000 nM	> 10000 nM	10 to 100 nM	–	–
NCC(O)C(=O)Nc1ccc(-c2cn[nH]c2)cc1 (centres unmarked) [Compound 3, N-(4-(1H-pyrazol-4-yl)phenyl)-3-amino-2-hydroxypropanamide dihydrochloride]	–	–	100 to 1000 nM	–	–
NCC(Oc1ccccc1)C(=O)Nc1ccc(-c2cn[nH]c2)cc1 (centres unmarked) [Compound 4, N-(4-(1H-pyrazol-4-yl)phenyl)-3-amino-2-phenoxypropanamide dihydrochloride]	–	–	1 to 10 nM	1%	time point at which maximum effect is achieved ([1]; dose 1%): 2 h; Intraocular pressure difference (mmHg) ([1]; dose 1%): 4.2 mmHg
NCC(Oc1ccc(C(F)(F)F)cc1)C(=O)Nc1ccc(-c2cn[nH]c2)cc1 (centres unmarked) [Compound 5, N-(4-(1H-pyrazol-4-yl)phenyl)-3-amino-2-(4-(trifluoromethyl)phenoxy)propenamide dihydrochloride]	100 to 1000 nM	–	1 to 10 nM	1%	time point at which maximum effect is achieved ([1]; dose 1%): 6 h; Intraocular pressure difference (mmHg) ([1]; dose 1%): 1.5 mmHg
NCC(OCc1ccccc1)C(=O)Nc1ccc(-c2cn[nH]c2)cc1 (centres unmarked) [Compound 6, N-(4-(1H-pyrazol-4-yl)phenyl)-3-amino-2-(benzyloxy) propanamidedihydrochloride]	100 to 1000 nM	> 10000 nM	10 to 100 nM	–	–
NCC(C(=O)Nc1ccc(-c2cn[nH]c2)cc1)c1ccc(F)cc1 (centres unmarked) [Compound 8, N-(4-(1H-pyrazol-4-yl)phenyl)-3-amino-2-(4-fluorophenyl) propanamide dihydrochloride]	10 to 100 nM	> 1000 nM	1 to 10 nM	1%	time point at which maximum effect is achieved ([1]; dose 1%): 6 h; Intraocular pressure difference (mmHg) ([1]; dose 1%): 5.2 mmHg
NCC(C(=O)Nc1ccc(-c2cn[nH]c2)cc1)c1ccc(O)cc1 (centres unmarked) [Compound 9, N-(4-(1H-pyrazol-4-yl)phenyl)-3-amino-2-(4-hydroxyphenyl) propanamide dihydrochloride]	–	–	1 to 10 nM	–	–
Cc1ccc(C(=O)Oc2ccc(C(CN)C(=O)Nc3ccc(-c4cn[nH]c4)cc3)cc2)c(C)c1 (centres unmarked) [Compound 10, 4-(1-((4-(1H-pyrazol-4-yl)phenyl)amino)-3-amino-1-oxopropan-2-yl)phenyl 2,4-dimethylbenzoate dihydrochloride]	> 1000 nM	> 10000 nM	100 to 1000 nM	–	–
NCC(C(=O)Nc1ccc(-c2cn[nH]c2)cc1)c1ccc(CO)cc1 (centres unmarked) [Compound 11, N-(4-(1H-pyrazol-4-yl)phenyl)-3-amino-2-(4-(hydroxymethyl)phenyl)propenamide dihydrochloride]	100 to 1000 nM	–	1 to 10 nM	0.5%	time point at which maximum effect is achieved ([1]; dose 0.5%): 1 h; Intraocular pressure difference (mmHg) ([1]; dose 0.5%): 2.0 mmHg
Cc1ccc(C(=O)OCc2ccc(C(CN)C(=O)Nc3ccc(-c4cn[nH]c4)cc3)cc2)c(C)c1 (centres unmarked) [Compound 12, 4-(1-((4-(1H-pyrazol-4-yl)phenyl)amino)-3-amino-1-oxopropan-2-yl) benzyl 2,4-dimethylbenzoate dihydrochloride]	100 to 1000 nM	> 1000 nM	10 to 100 nM	0.25%	time point at which maximum effect is achieved ([1]; dose 0.25%): 6 h; Intraocular pressure difference (mmHg) ([1]; dose 0.25%): 2.0 mmHg
NCC(C(=O)Nc1ccc(-c2cn[nH]c2)cc1)c1ccc(C=O)cc1 (centres unmarked) [Compound 13, N-(4-(1H-pyrazol-4-yl)phenyl)-3-amino-2-(4-formylphenyl)propanamide dihydrochloride]	100 to 1000 nM	> 1000 nM	–	–	IC50 (ROCK1; read-out: ROCK1 IC50): < 1 nM
NCC(C(=S)Nc1ccc(-c2cn[nH]c2)cc1)c1ccccc1 (centres unmarked) [Compound 14, N-(4-(1H-pyrazol-4-yl)phenyl)-3-amino-2-phenylpropanethioamide dihydrochloride]	100 to 1000 nM	> 1000 nM	1 to 10 nM	0.5%	time point at which maximum effect is achieved ([1]; dose 0.5%): 6 h; Intraocular pressure difference (mmHg) ([1]; dose 0.5%): 2.5 mmHg
NCC(NC(=S)Nc1ccc(-c2cn[nH]c2)cc1)c1ccccc1 (centres unmarked) [Compound 15, 1-(4-(1H-pyrazol-4-yl)phenyl)-3-(2-amino-1-phenylethyl)thiourea dihydrochloride]	100 to 1000 nM	> 10000 nM	100 to 1000 nM	–	–
N#C/N=C(/NCc1ccccc1)Nc1ccc(-c2cn[nH]c2)cc1 [Compound 16, 1-(4-(1H-pyrazol-4-yl)phenyl)-3-benzyl-2-cyanoguanidine hydrochloride]	> 10000 nM	> 10000 nM	–	–	IC50 (ROCK1; read-out: ROCK1 IC50): > 10000 nM
NCCN(Cc1ccc(F)cc1)C(=O)c1ccc(-c2cn[nH]c2)cc1 [Compound 17, N-(2-aminoethyl)-N-(4-fluorobenzyl)-4-(1H-pyrazol-4-yl)benzamide dihydrochloride]	> 10000 nM	> 10000 nM	100 to 1000 nM	–	–
NCC(C(=O)Nc1ccc(Oc2cn[nH]c2)cc1)c1ccccc1 (centres unmarked) [Compound 18, N-(4-((1H-pyrazol-4-yl)oxy)phenyl)-3-amino-2-phenylpropanamide dihydrochloride]	–	–	–	–	IC50 (ROCK1; read-out: ROCK1 IC50): > 10000 nM
NCC(C(=O)Nc1ccc(-c2cn[nH]c2)cc1F)c1ccccc1 (centres unmarked) [Compound 19, 3-amino-N-(2-fluoro-4-(1H-pyrazol-4-yl)phenyl)-2-phenylpropanamide dihydrochloride]	100 to 1000 nM	> 1000 nM	10 to 100 nM	–	–
NC[C@H](C(=O)Nc1ccc(-c2cn[nH]c2)cc1)c1ccccc1 [Compound 21, (R)—N-(4-(1H-pyrazol-4-yl)phenyl)-3-amino-2-phenylpropanamide dihydrochloride]	100 to 1000 nM	–	100 to 1000 nM	–	time point at which maximum effect is achieved ([1]; dose 0.03%): 8 h; Intraocular pressure difference (mmHg) ([1]; dose 0.03%): 1.3 mmHg
